Assay results from publication PMC11435058, “Synthesis of New Thiazole-Privileged Chalcones as Tubulin Polymerization Inhibitors with Potential Anticancer Activities” (Pharmaceuticals, 2024).

How the values were obtained:
[1] = test system: 60 human tumor cell lines panel; test: NCI-60 anticancer screen, whole panel (means and ranges over the cell lines); type: cell-based
HL-60(TB) = test: NCI-60 anticancer screen (SRB; single dose and five doses); conditions: Homo sapiens
K-562 = test: as above; conditions: Homo sapiens
MOLT-4 = test: as above; conditions: Homo sapiens
RPMI-8226 = test: as above; conditions: Homo sapiens
SR = test: as above; conditions: Homo sapiens
A549/ATCC = test: as above; conditions: Homo sapiens
HOP-62 = test: as above; conditions: Homo sapiens
HOP-92 = test: as above; conditions: Homo sapiens
COLO 205 = test: as above; conditions: Homo sapiens
HCT-15 = test: as above; conditions: Homo sapiens
HT29 = test: as above; conditions: Homo sapiens
KM12 = test: as above; conditions: Homo sapiens
SF-268 = test: as above; conditions: Homo sapiens
LOX IMVI = test: as above; conditions: Homo sapiens
MALME-3M = test: as above; conditions: Homo sapiens
SK-MEL-5 = test: as above; conditions: Homo sapiens
UACC-62 = test: as above; conditions: Homo sapiens
IGROV1 = test: as above; conditions: Homo sapiens
NCI/ADR-RES = test: as above; conditions: Homo sapiens
CAKI-1 = test: as above; conditions: Homo sapiens
RXF 393 = test: as above; conditions: Homo sapiens
PC-3 = test: as above; conditions: Homo sapiens
DU-145 = test: as above; conditions: Homo sapiens
MDA-MB-231/ATCC = test: as above; conditions: Homo sapiens
HS 578T = test: as above; conditions: Homo sapiens
BT-549 = test: as above; conditions: Homo sapiens
T-47D = test: as above; conditions: Homo sapiens, T47D
[2] = five doses, mean graph midpoint over all cell lines
[3] = 48 h, read-out: Growth Percentage

## Cc1[nH]c(=S)sc1C(=O)/C=C/c1cccc(Cl)c1 [2e, (E)-3-(3-Chlorophenyl)-1-(4-Methyl-2-Thioxo-2,3-Dihydrothiazol-5-yl)Prop-2-En-1-One]
[1]; Homo sapiens, 48 h, range over the cell lines, dose of 10 μM, read-out: growth percentages against most of the tested cells (lowest to highest)
  activity at 10 µM: -26.1 to 98%
[1]; [2]
  Log10GI50 _MID: -5.17 Molar
  Log10LC50 _MID: -4.26 Molar
  Log10TGI _MID: -4.66 Molar
HL-60(TB); HL-60
  GI50: 2.24 µM
  IC50: 4.27 µM
HL-60(TB); HL-60, 48 h, read-out: Growth Percentage
  activity at 10 µM: 25.3%
HL-60(TB); HL-60, read-out: LC50
  CC50: > 100 µM
HL-60(TB); HL-60, read-out: TGI
  IC (TGI): 7.08 µM
K-562; K562
  GI50: 3.39 µM
  IC50: 4.27 µM
K-562; K562, 48 h, read-out: Growth Percentage
  activity at 10 µM: 16.8%
K-562; K562, read-out: LC50
  CC50: > 100 µM
K-562; K562, read-out: TGI
  IC (TGI): > 100 µM
MOLT-4; MOLT-4
  GI50: 2.82 µM
  IC50: 4.27 µM
MOLT-4; MOLT-4, 48 h, read-out: Growth Percentage
  activity at 10 µM: 19.8%
MOLT-4; MOLT-4, read-out: LC50
  CC50: > 100 µM
MOLT-4; MOLT-4, read-out: TGI
  IC (TGI): > 100 µM
RPMI-8226; RPMI-8226
  GI50: 2.04 µM
  IC50: 3.72 µM
RPMI-8226; RPMI-8226, 48 h, read-out: Growth Percentage
  activity at 10 µM: 10.4%
RPMI-8226; RPMI-8226, read-out: LC50
  CC50: > 100 µM
RPMI-8226; RPMI-8226, read-out: TGI
  IC (TGI): 5.5 µM
SR
  GI50: 2.63 µM
  IC50: 3.89 µM
SR; [3]
  activity at 10 µM: 3.42%
SR; read-out: LC50
  CC50: > 100 µM
SR; read-out: TGI
  IC (TGI): > 100 µM
A549/ATCC; A549
  GI50: 4.79 µM
  IC50: 7.41 µM
A549/ATCC; A549, 48 h, read-out: Growth Percentage
  activity at 10 µM: 26.5%
A549/ATCC; A549, read-out: LC50
  CC50: > 100 µM
A549/ATCC; A549, read-out: TGI
  IC (TGI): 47.9 µM
HOP-62; HOP-62
  GI50: 2.57 µM
  IC50: 4.68 µM
HOP-62; HOP-62, 48 h, read-out: Growth Percentage
  activity at 10 µM: 10.4%
HOP-62; HOP-62, read-out: LC50
  CC50: 74.1 µM
HOP-62; HOP-62, read-out: TGI
  IC (TGI): 6.31 µM
HOP-92; HOP-92
  GI50: 3.55 µM
  IC50: 79.4 µM
HOP-92; HOP-92, read-out: LC50
  CC50: > 100 µM
HOP-92; HOP-92, read-out: TGI
  IC (TGI): 30.9 µM
COLO 205; COLO 205
  GI50: 3.55 µM
  IC50: 5.25 µM
COLO 205; COLO 205, 48 h, read-out: Growth Percentage
  activity at 10 µM: 70.7%
COLO 205; COLO 205, read-out: LC50
  CC50: 51.3 µM
COLO 205; COLO 205, read-out: TGI
  IC (TGI): 14.4 µM
HCT-15; HCT-15
  GI50: 2.09 µM
  IC50: 3.55 µM
HCT-15; HCT-15, 48 h, read-out: Growth Percentage
  activity at 10 µM: -22%
HCT-15; HCT-15, read-out: LC50
  CC50: 46.8 µM
HCT-15; HCT-15, read-out: TGI
  IC (TGI): 5.89 µM
HT29; HT-29
  GI50: 2.24 µM
  IC50: 3.55 µM
HT29; HT-29, 48 h, read-out: Growth Percentage
  activity at 10 µM: 29.9%
HT29; HT-29, read-out: LC50
  CC50: 12.6 µM
HT29; HT-29, read-out: TGI
  IC (TGI): 4.9 µM
KM12; KM12
  GI50: 1.95 µM
  IC50: 3.39 µM
KM12; KM12, 48 h, read-out: Growth Percentage
  activity at 10 µM: -30.7%
KM12; KM12, read-out: TGI
  IC (TGI): 3.89 µM
SF-268; SF-268
  GI50: 3.72 µM
  IC50: 7.59 µM
SF-268; SF-268, 48 h, read-out: Growth Percentage
  activity at 10 µM: 51.8%
SF-268; SF-268, read-out: LC50
  CC50: 97.7 µM
SF-268; SF-268, read-out: TGI
  IC (TGI): 17 µM
LOX IMVI
  GI50: 1.66 µM
  IC50: 2.88 µM
LOX IMVI; [3]
  activity at 10 µM: -26.1%
LOX IMVI; read-out: LC50
  CC50: 5.75 µM
LOX IMVI; read-out: TGI
  IC (TGI): 3.09 µM
MALME-3M
  GI50: 2.24 µM
  IC50: 5.13 µM
MALME-3M; [3]
  activity at 10 µM: 86.9%
MALME-3M; read-out: LC50
  CC50: 50.1 µM
MALME-3M; read-out: TGI
  IC (TGI): 5.75 µM
SK-MEL-5; SK-MEL-5
  GI50: 4.79 µM
  IC50: 9.12 µM
SK-MEL-5; SK-MEL-5, 48 h, read-out: Growth Percentage
  activity at 10 µM: 16.1%
SK-MEL-5; SK-MEL-5, read-out: LC50
  CC50: 41.7 µM
SK-MEL-5; SK-MEL-5, read-out: TGI
  IC (TGI): 17 µM
UACC-62; UACC-62
  GI50: 2.34 µM
  IC50: 4.17 µM
UACC-62; UACC-62, 48 h, read-out: Growth Percentage
  activity at 10 µM: 30%
UACC-62; UACC-62, read-out: TGI
  IC (TGI): 8.71 µM
IGROV1; IGROV-1
  GI50: 2.45 µM
  IC50: 4.17 µM
IGROV1; IGROV-1, 48 h, read-out: Growth Percentage
  activity at 10 µM: 34%
IGROV1; IGROV-1, read-out: LC50
  CC50: > 100 µM
IGROV1; IGROV-1, read-out: TGI
  IC (TGI): 6.46 µM
NCI/ADR-RES
  GI50: 2.88 µM
  IC50: 5.01 µM
NCI/ADR-RES; [3]
  activity at 10 µM: -5.11%
NCI/ADR-RES; read-out: LC50
  CC50: > 100 µM
NCI/ADR-RES; read-out: TGI
  IC (TGI): > 100 µM
CAKI-1; CAKI-1
  GI50: 4.68 µM
  IC50: 15.5 µM
CAKI-1; CAKI-1, 48 h, read-out: Growth Percentage
  activity at 10 µM: 23.9%
CAKI-1; CAKI-1, read-out: LC50
  CC50: 69.2 µM
CAKI-1; CAKI-1, read-out: TGI
  IC (TGI): 20.9 µM
RXF 393; RXF 393
  GI50: 1.91 µM
  IC50: 5.13 µM
RXF 393; RXF 393, 48 h, read-out: Growth Percentage
  activity at 10 µM: 10.7%
RXF 393; RXF 393, read-out: LC50
  CC50: 10 µM
RXF 393; RXF 393, read-out: TGI
  IC (TGI): 4.37 µM
PC-3; PC-3
  GI50: 2.88 µM
  IC50: 4.9 µM
PC-3; PC-3, 48 h, read-out: Growth Percentage
  activity at 10 µM: 31.8%
PC-3; PC-3, read-out: LC50
  CC50: > 100 µM
PC-3; PC-3, read-out: TGI
  IC (TGI): 13.8 µM
DU-145; DU-145
  GI50: 3.24 µM
  IC50: 4.79 µM
DU-145; DU-145, 48 h, read-out: Growth Percentage
  activity at 10 µM: 16.1%
DU-145; DU-145, read-out: LC50
  CC50: 42.7 µM
DU-145; DU-145, read-out: TGI
  IC (TGI): 11.5 µM
MDA-MB-231/ATCC; MDA-MB-231
  GI50: 2.45 µM
  IC50: 6.17 µM
MDA-MB-231/ATCC; MDA-MB-231, 48 h, read-out: Growth Percentage
  activity at 10 µM: -0.43%
MDA-MB-231/ATCC; MDA-MB-231, read-out: LC50
  CC50: 39.8 µM
MDA-MB-231/ATCC; MDA-MB-231, read-out: TGI
  IC (TGI): 6.92 µM
HS 578T
  GI50: 3.09 µM
  IC50: > 100 µM
HS 578T; [3]
  activity at 10 µM: 47.2%
HS 578T; read-out: LC50
  CC50: > 100 µM
HS 578T; read-out: TGI
  IC (TGI): 85.1 µM
BT-549; BT-549
  GI50: 2.24 µM
  IC50: 5.89 µM
BT-549; BT-549, 48 h, read-out: Growth Percentage
  activity at 10 µM: 2.28%
BT-549; BT-549, read-out: TGI
  IC (TGI): 6.17 µM
T-47D
  GI50: 3.39 µM
  IC50: 7.94 µM
T-47D; [3]
  activity at 10 µM: 4.54%
T-47D; read-out: LC50
  CC50: > 100 µM
T-47D; read-out: TGI
  IC (TGI): 20.9 µM
